From PubChem BioAssay AID248 (DTP/NCI, 2004)
Where “and” joins values, the source holds several entries; their conditions need not be identical. Identical values can stand only once. Inconclusive results and toxic doses are left out. No stated cut-off is given here; in the data, active means T/C of 150% or more; inactive means T/C below 125%.

Tested on: L1210 leukemia ip in BDF1 mice, survival T/C
Experiment: NCI In Vivo Anticancer Drug Screen. Data for tumor model L1210 Leukemia (intraperitoneal) in B6D2F1 (BDF1) mice
Conditions: endpoint: mean survival time, higher = longer survival
In short: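 Survival endpoint. Drug-treated group vs vehicle group, expressed as T divided by C. Tumor passaged by transplantation.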

[1] = dose: 100.0 mg/kg/injection, schedule: Q04DX003 (ip), vehicle: saline with Tween-80
[2] = dose: 200.0 mg/kg/injection, schedule: Q04DX003 (ip), vehicle: saline with Tween-80

Measured: T/C

ClC(Cl)=C1C(Cl)=C(Cl)C(Cl)=C1Cl
inactive: dose: 50.0 mg/kg/injection, schedule: Q01DX009 (ip), vehicle: Klucel (hydroxypropylcellulose) (HPC) 97 % of control | dose: 50.0 mg/kg/injection, schedule: Q04DX003 (ip), vehicle: Klucel (hydroxypropylcellulose) (HPC) 96 % of control | dose: 100.0 mg/kg/injection, schedule: Q01DX009 (ip), vehicle: Klucel (hydroxypropylcellulose) (HPC) 100 % of control | dose: 100.0 mg/kg/injection, schedule: Q04DX003 (ip), vehicle: Klucel (hydroxypropylcellulose) (HPC) 96 % of control | dose: 200.0 mg/kg/injection, schedule: Q01DX009 (ip), vehicle: Klucel (hydroxypropylcellulose) (HPC) 94 % of control | dose: 200.0 mg/kg/injection, schedule: Q04DX003 (ip), vehicle: Klucel (hydroxypropylcellulose) (HPC) 93 % of control

O=c1ccc2cc3ccc(=O)oc3cc2o1
inactive: dose: 100.0 mg/kg/injection, schedule: Q01DX001 (ip), vehicle: saline with Tween-80 97 % of control | dose: 200.0 mg/kg/injection, schedule: Q01DX001 (ip), vehicle: saline with Tween-80 97 % of control | dose: 400.0 mg/kg/injection, schedule: Q01DX001 (ip), vehicle: saline with Tween-80 87 % of control

C[CH2][Ge]([CH2]C)([CH2]C)[CH2]CCO
inactive: dose: 5.0 mg/kg/injection, schedule: Q04DX002 (ip), vehicle: saline with Tween-80 103 % of control | dose: 10.0 mg/kg/injection, schedule: Q04DX002 (ip), vehicle: saline with Tween-80 97 % of control | dose: 20.0 mg/kg/injection, schedule: Q04DX002 (ip), vehicle: saline with Tween-80 95 % of control | dose: 100.0 mg/kg/injection, schedule: Q04DX002 (ip), vehicle: saline with Tween-80 93 % of control | dose: 200.0 mg/kg/injection, schedule: Q04DX002 (ip), vehicle: saline with Tween-80 93 % of control

ICC1OCOC2C(CI)OCOC12 (stereo unspecified)
inactive: dose: 100.0 mg/kg/injection, schedule: Q01DX001 (ip), vehicle: other 103 % of control | dose: 200.0 mg/kg/injection, schedule: Q01DX001 (ip), vehicle: other 93 % of control | dose: 400.0 mg/kg/injection, schedule: Q01DX001 (ip), vehicle: other 103 % of control

O=C1/C(=C\c2ccccc2)C(NC2CCCCC2)c2ccccc21 (stereo unspecified)
inactive: dose: 3.12 mg/kg/injection, schedule: Q01DX009 (ip), vehicle: Klucel (hydroxypropylcellulose) (HPC) 108 % of control | dose: 6.25 mg/kg/injection, schedule: Q01DX009 (ip), vehicle: Klucel (hydroxypropylcellulose) (HPC) 101 % of control | dose: 12.5 mg/kg/injection, schedule: Q01DX009 (ip), vehicle: Klucel (hydroxypropylcellulose) (HPC) 95 % of control

CC#CC(=O)SCCNC(=O)CC
inactive: dose: 25.0 mg/kg/injection, schedule: Q01DX009 (ip), vehicle: saline with Tween-80 104 % of control | dose: 50.0 mg/kg/injection, schedule: Q01DX009 (ip), vehicle: saline with Tween-80 96 % of control | [1] 103 % of control | [2] 91 % of control

CCOC(=O)CC(=O)c1ccccc1SC
inactive: [1] 102 % of control | [2] 100 % of control | dose: 400.0 mg/kg/injection, schedule: Q04DX003 (ip), vehicle: saline with Tween-80 91 % of control

CC1=C(C)C(=O)c2c(OC(=O)c3ccccc3)ccc(OC(=O)c3ccccc3)c2C1=O
inactive: dose: 12.5 mg/kg/injection, schedule: Q01DX009 (ip), vehicle: saline 100 % of control | dose: 25.0 mg/kg/injection, schedule: Q01DX009 (ip), vehicle: saline 99 % of control | dose: 50.0 mg/kg/injection, schedule: Q01DX009 (ip), vehicle: saline 92 % of control | dose: 50.0 mg/kg/injection, schedule: Q04DX003 (ip), vehicle: saline 95 % of control | dose: 100.0 mg/kg/injection, schedule: Q01DX009 (ip), vehicle: saline 92 % of control | dose: 100.0 mg/kg/injection, schedule: Q04DX003 (ip), vehicle: saline 98 % of control and 91 % of control | dose: 200.0 mg/kg/injection, schedule: Q01DX009 (ip), vehicle: saline 87 % of control | dose: 200.0 mg/kg/injection, schedule: Q04DX003 (ip), vehicle: saline 90 % of control | dose: 400.0 mg/kg/injection, schedule: Q04DX003 (ip), vehicle: saline 92 % of control and 91 % of control
